According to patent US8222295B2, “Compositions comprising polyunsaturated fatty acid monoglycerides or derivatives thereof and uses thereof” (Centre de Recherche sur les Biotechnologies Marines, priority 2007, dated 2012):
In brackets after ≈: the same amount, converted by molar mass. Values belong to the compound of their own block, whether it stands above or below them.

Legend:
[1] = human, in vivo
Protocol: The volunteer fasted for 12 hours prior to the study. […] Controlled amount of boiled pasta was eaten after the 4 h time point. An initial blood sample (400 μl) was collected using a lancet at a fingertip into heparin tubes followed by samples at 1, 2, 3, 4, 5, 6, 7 and 8 hour after ingestion. Plasma was separated and immediately analysed for fatty acid composition.
The AUC (calculates area under the curve for concentration vs. time data) is calculated using linear trapezoidal rule. […] In this experiment, the doses are the same. […] The relative bioavailability of compound 1 and compound 5 is calculated with the same formula:

[2] = test system: A-549 human lung cancer cell line; assay: in vitro cell viability assay (SRB) on A-549; format: cell-based
Protocol: (§1) Five consecutive dilutions with a equal volume of DMSO was performed. […] Precipitation occur at high concentration of curcumin. […] Five consecutive dilutions with a equal volume of DMSO was performed. […] The cell viability assay is performed to measure the relative cell viability status of cancer cells upon exposure to test compounds in comparison to a positive control (etoposide) and a negative control (vehicule). Adherent cells growing in 96-well plates are exposed to test compounds for 3 days (72 hours). […] All conditions are tested in triplicate. […] After the incubation time, total protein content is quantified following staining with the anionic dye sulforhodamine B (SRB). The detection of luminescence, emitted by SRB, is completed by a microplate reader. This method of detection is based upon works published by Monks et al., in Journal of the National Cancer Institute vol. 82 no. […] The amount of luminescence is directly proportional to the number of living cells in culture. […] Cells were trypsinized using 0.25% trypsine (w/v)/0.53 mM EDTA solution (Hyclone), counted and plated at densities between 1000 and 3000 cells per well in flat bottom 96-well clear plates (Becton Dickinson) in 100 μl of appropriate culture medium supplemented with fetal bovine serum (Hyclone). […] Absorbance was read at 515 nm using a 96-well plate Multiskan Spectrum luminescence reader (Thermo Electron Corporation). […]

[3] = test system: PC-3 human prostate cancer cell line; assay: in vitro cell viability assay (SRB) on PC-3; format: cell-based
Protocol: as §1

[4] = test system: HCT-15 human colon cancer cell line; assay: in vitro cell viability assay (SRB) on HCT-15; format: cell-based
Protocol: as §1

[5] = test system: human monocyte THP-1 cells; assay: LPS-induced TNF-α release by monocyte cells (ELISA); format: cell-based; settings: 100 ng/ml of LPS, 4 hours, composition 3 10 μg/ml, curcumin 5 μg/ml
Protocol: Composition 3 (comprising compounds 1 and 5) at final concentration of 10 μg/ml, curcumin (5 μg/ml) and a 1:1 mixture of composition 3 ([…]) and curcumin (5 μg/ml) in DMSO (1%) was used for the in vitro assay. Composition 3 prepared according to the same procedure as previously described in Example 2)
The in vitro assay allows evaluation of the potential anti-inflammatory effects of compounds on the induced-release of pro-inflammatory mediator by monocyte cells. Typical human monocyte THP-1 cells, involved in inflammatory processes, are used in this assay. Measurement of pro-inflammatory mediator TNF-α is performed by ELISA (manufactured by R&D Systems) with artificial induction of pro-inflammatory agents by LPS (E. Coli 055:B5) during 4 hours. Known anti-inflammatory agent dexametazone was used as positive control.

relative bioavailability of compound 1 compared to compound 5 [1]: 2.20
SMILES: CC/C=C\C/C=C\C/C=C\C/C=C\C/C=C\CCCCCC(=O)OCC(O)CO (stereo not drawn) [compound 1]

IC50 ([2]; A549, A-549, 72 hours, SRB, concentration of the tested substance or composition, read-out: 50% growth inhibition concentration): ~100 µg/mL (≈ 271 µM)
IC50 ([3]; PC-3, 72 hours, SRB, concentration of the tested substance or composition, read-out: 50% growth inhibition concentration): ~75 µg/mL (≈ 204 µM)
IC50 ([4]; HCT-15, 72 hours, SRB, concentration of the tested substance or composition, read-out: 50% growth inhibition concentration): ~100 µg/mL (≈ 271 µM)
SMILES: COc1cc(/C=C/C(=O)CC(=O)/C=C/c2ccc(O)c(OC)c2)ccc1O [curcumin]
TNF-α measured [5]: 100 µg/mL

SMILES: C[C@@H]1C[C@H]2[C@@H]3CCC4=CC(=O)C=C[C@]4(C)[C@@]3(F)[C@@H](O)C[C@]2(C)[C@@]1(O)C(=O)CO [dexametazone]
TNF-α measured [5]: 125 µg/mL

SMILES: COc1cc([C@@H]2c3cc4c(cc3[C@@H](O[C@@H]3O[C@@H]5CO[C@@H](C)O[C@H]5[C@H](O)[C@H]3O)[C@H]3COC(=O)[C@H]23)OCO4)cc(OC)c1O [etoposide]
inhibition at 294 µg/mL ([2]; A549, A-549, positive control at 294 μg/ml, read-out: growth inhibition): 100%
inhibition at 294 µg/mL ([3]; PC-3, positive control at 294 μg/ml, read-out: growth inhibition): 100%
inhibition at 294 µg/mL ([4]; HCT-15, positive control at 294 μg/ml, read-out: growth inhibition): 100%
